# In patent US8466203B2, “Method of stabilizing human eye tissue by reaction with nitrite and related agents such as nitro compounds” (priority 2006, dated 2013):
# Columns and labels:
# porcine sclera = assay: Thermal shrinkage temperature analysis of porcine scleral strips; conditions: for shift in Ts (in words): neutral pH, up to 100 mM
# Excerpt: (§1) Thermal shrinkage temperature or denaturation temperature (Ts) is a technique that has been used for decades in studying collagen cross-linking. As collagen fibers are progressively heated, a threshold temperature is reached at which point disruption of hydrogen bonding in the collagen molecule triple helix occurs, resulting in unwinding of the triple helices. The denaturation of tertiary protein structure results in a rapid shrinkage of the tissue of up to 80%. This phenomenon can be expressed in various ways including temperature of onset of tissue shrinkage, temperature at maximal tissue shrinkage, and temperature at 50% of maximal tissue shrinkage, for example. In addition, differential scanning calorimetry (DSC) is related to thermal shrinkage temperature analysis and is widely used to evaluate biomaterial cross-linking. Thermal shrinkage temperature is essentially a simplified version of DSC and can be used effectively to screen the cross-linking efficacy of compounds. For the purposes of this study, the onset of shrinkage is considered the Ts and the temperature at which 50% of maximal shrinkage has occurred is T50. Graphs depicting the relationship between degree of shrinkage and temperature indicate differences in degree of cross-linking between groups. Thus, stabilization of collagen fiber structures through non-enzymatic cross-linking increases Ts and T50.
# (§2) This system can perform multiple Ts assays in succession, allowing rapid screening of a number of potential cross-linking agents and conditions. […] Inlet and outlet fittings allow for constant circulation of heated water which is modulated by a digitally controlled water bath equipped with a water pump. The entire box is placed on a digital photo scanner connected to a Windows based computer. Beginning at 50° C. the temperature is raised at a rate of 1° C./min and serial scans are taken at every degree increase in temperature up to 80° C. […] As the tissue shrinks, the images are captured by the scanner. The image files are later analyzed for 2-dimensional area using NIH Image J software and % shrinkage calculations are made using Microsoft Excel for graphing purposes. This method obviates the need for removal of tissue pieces from the water bath with manual micrometer measurements as described by the UVR group (Spoerl, E., et al., 2004).
# Using this simple, reproducible assay enables the screening of a number of compounds for cross-linking efficacy. This is first performed using porcine eyes because of their low cost. Follow up studies can be performed using human eyes. Porcine eyes are obtained within 6 hrs of sacrifice (Hatfield Meat Packing, Inc., Hatfield Pa.). Eyes showing clear corneas and intact epithelia are chosen for study. […] Each strip is then cross-linked using a nitro agent. […] Opthalmol. 1999; 117:166-169) for 24-96 hrs. Following incubation, the samples are evaluated for degree of cross-linking using the Ts assay as described above.
# From the data, Ts curves are generated for each compound and condition studied. Each data point is the average of 3 independent samples.
# porcine cornea [1] = assay: Thermal shrinkage temperature analysis of porcine corneal strips
# Excerpt: as §1, §2
# Using this simple, reproducible assay enables the screening of a number of compounds for cross-linking efficacy. This is first performed using porcine eyes because of their low cost. Follow up studies can be performed using human eyes. Porcine eyes are obtained within 6 hrs of sacrifice (Hatfield Meat Packing, Inc., Hatfield Pa.). Eyes showing clear corneas and intact epithelia are chosen for study. […] Each strip is then cross-linked using a nitro agent. The incubation solution is 20% Dextran (T500) [to prevent tissue swelling] in 0.2 M NaH2PO4/Na2HPO4 (pH 7.4) with various concentrations of nitro agent (i.e. 1, 10, and 100 mM). […] The samples are then placed in 2 mL microcentrifuge tubes with 1 mL of incubation solution and reacted in a 34° C. water bath (simulating corneal temperature—Girardin, F., et al., “Relationship between corneal temperature and finger temperature,” Arch. Opthalmol. 1999; 117:166-169) for 24-96 hrs. Following incubation, the samples are evaluated for degree of cross-linking using the Ts assay as described above.
# porcine cornea [2] = assay: Yellowing of cross-linked porcine cornea
# Procedure: (§3) These images were taken from tissues cross-linked with nitrite and the β-nitro alcohols 2-nitroethanol, 2-nitro-1-propanol, and […], for 48 hrs. […] Fresh porcine corneal strips and corneoscleral complexes were obtained within 6 hrs of sacrifice and incubated at 37° C. in buffered solutions (pH 7.4) containing 20% Dextran (T500) and either 100 mM NaNO2 or 100 mM of one each of the β-nitro alcohols. After 48 hrs, the following images were obtained. […] FIGS. 13 (B and D)
# As such, the effects on corneal light transmission induced by cross-linking with β-nitro alcohols was evaluated using a method adopted from Dillon et al 2004.
# [3] = system: primary bovine corneal endothelial cells; conditions: bovine, 48 h
# porcine cornea [4] = assay: Gross stiffness of porcine corneal strips handled with a forceps; conditions: 100 mM, pH 7.4, 37° C., 48 hrs
# Procedure: Fresh porcine corneal strips and corneoscleral complexes obtained within 6 hrs of sacrifice and incubated at 37° C. in buffered solutions (pH 7.4) containing 20% Dextran (T500) and either 100 mM NaNO2 or 100 mM of one each of the specified β-nitro alcohols
# as §3
# human fibroblasts = conditions: Sung 1998; cited from earlier work
# [5] = 100 mM reagent, pH 7.4, 37° C., 96 hrs
# [6] = 1 mM reagent, pH 7.4, 37° C., 96 hrs
# [7] = 10 mM reagent, pH 7.4, 37° C., 96 hrs
# [8] = 100 mM, 24 hrs reaction, pH 7.4
Structure (SMILES),T50 (temperature at 50% of maximal shrinkage) (porcine sclera; [5]) [°C],T50 Δ (change in 50% shrinkage temperature compared to control) (porcine sclera; [5]) [°C],Ti (temperature at 1% absolute shrinkage) (porcine sclera; [5]) [°C],shift in Ts (in words) (porcine sclera),T50 (temperature at 50% of maximal shrinkage) (porcine sclera; [6]) [°C],T50 Δ (change in 50% shrinkage temperature compared to control) (porcine sclera; [6]) [°C],T50 (temperature at 50% of maximal shrinkage) (porcine sclera; [7]) [°C],T50 Δ (change in 50% shrinkage temperature compared to control) (porcine sclera; [7]) [°C],Ti (temperature at 1% absolute shrinkage) (porcine sclera; [7]) [°C],further results
"NCCO [2-aminoethanol, reference compound]",67.9,2.6,64.3,only a marginal shift in Ts,,,,,,
CCCC(CO)[N+](=O)[O-] (stereo not drawn) [2-nitro-1-pentanol],,,,,,,,,,shifts in Ts (in words) (porcine cornea [1]): produce shifts in Ts; yellowing (tinting) (porcine cornea [2]): without producing yellowing
CC(CO)[N+](=O)[O-] (stereo not drawn) [2-nitro-1-propanol],72.7,7.4,69.5,,66.0,0.7,67.5,2.2,64.4,shifts in Ts (in words) (porcine cornea [1]): produce shifts in Ts; highest tolerated level [3]: 0.75 mM; yellowing (tinting) (porcine cornea [2]): without producing yellowing; Ti (temperature at 1% absolute shrinkage) (porcine sclera; [6]): 63.0 °C; stiffness change when handled with a forceps (porcine cornea [4]): intermediate effect
"CC[N+](=O)[O-] [2-nitroethane, reference compound]",65.3,0,62.5,did not shift the Ts to any extent,,,65.4,0.1,62.5,
"O=[N+]([O-])c1ccccc1O [2-nitrophenol, reference compound]",66.0,0.7,62.9,very little shift in Ts,65.2,−0.1,65.6,0.3,62.3,Ti (temperature at 1% absolute shrinkage) (porcine sclera; [6]): 62.2 °C
CCC(C(C)O)[N+](=O)[O-] (stereo not drawn) [3-nitro-2-pentanol],70.7,5.4,68.3,,66.2,0.9,67.7,2.4,65.3,highest tolerated level [3]: 2 mM; Ti (temperature at 1% absolute shrinkage) (porcine sclera; [6]): 62.5 °C; stiffness change when handled with a forceps (porcine cornea [4]): dramatic stiffness change
"NCCN(CCN)/[N+]([O-])=N/O [DETA/NONO, diethylenetriaamine NONOate, reference compound]",65.5,0.2,,Neither compound was able to shift Ts parameters,,,,,,
"C[S+](C)[O-] [DMSO, reference compound]",,,,,,,,,,"T50 (porcine sclera; 1% reagent, pH 7.4, 96 hrs): 65.0 °C; T50 Δ (porcine sclera; 1% reagent, pH 7.4, 96 hrs): −0.3 °C"
"NCCCN(CCCN)/[N+]([O-])=N/O [DPTA/NONO, dipropylenetriamine NONOate, reference compound]",,,,Neither compound was able to shift Ts parameters,,,,,,"T50 (porcine sclera; 10 mM, 24 hrs reaction, pH 7.4): 66.4 °C; T50 Δ (porcine sclera; 10 mM, 24 hrs reaction, pH 7.4): 1.1 °C; T50 (porcine sclera; [8]): 66.2 °C; T50 Δ (porcine sclera; [8]): 0.9 °C"
"CCO [Ethanol, reference compound]",65.2,−0.1,,,,,,,,
"C=O [Formaldehyde, reference compound]",,,,,,,,,,T50 (temperature at 50% of maximal shrinkage) (porcine sclera; pH 7.4): 67.7 °C; T50 Δ (change in 50% shrinkage temperature compared to control) (porcine sclera; pH 7.4): 2.4 °C
"O=CCCCC=O [Glutaraldehyde, reference compound]",,,,,68.9,3.6,,,,potency as a cross-linking agent relative to 2-nitroethanol (porcine sclera; at moderate levels of T50 shift (~4° C.)): approximately 10 ×
COC(=O)C1=CO[C@@H](O)[C@@H]2C(CO)=CC[C@H]12 [genipin],,,,,,,,,,tolerable level relative to epoxy (human fibroblasts): more than 20 ×; tolerable level relative to glutaraldehyde (human fibroblasts): more than 100 ×
